Test results from patent US20040096494A1, “Composition” (priority 2003, published 2004).

Conditions: minipig, in vivo

Row | SMILES | oral bioavailability, expressed as the systemic exposure to ketoprofen relative to intravenous ketoprofen [%] | oral bioavailability, expressed as the systemic exposure to diclofenac relative to intravenous diclofenac [%]
1 | CC(C(=O)OCCCCCCO[N+](=O)[O-])c1cccc(C(=O)c2ccccc2)c1 (stereo not drawn) [Compound of formula Ic] | 82 | 
2 | CC(C(=O)OCc1ccc(CO[N+](=O)[O-])cc1)c1cccc(C(=O)c2ccccc2)c1 (stereo not drawn) [Compound of formula If] | 80 | 
3 | O=C(Cc1ccccc1Nc1c(Cl)cccc1Cl)OCCCCO[N+](=O)[O-] [Compound of formula Ig] |  | 85
